# Assay results from patent US6689789B2, “Compounds useful for inhibition of farnesyl protein transferase” (Schering Corporation, priority 1997, dated 2004).
# Target: farnesyl protein transferase (Homo sapiens, UniProt P49356)
# Experiment: FPT IC50, inhibition of farnesyl protein transferase, in vitro enzyme assay
# Format: biochemical
# Conditions: procedure of WO 95/10516
# Method: FPT IC50 (inhibition of farnesyl protein transferase, in vitro enzyme assay) and COS Cell IC50 (Cell-Based Assay) were determined following the assay procedures described in WO 95/10516, published Apr. 20, 1995. GGPT IC50 (inhibition of geranylgeranyl protein transferase, in vitro enzyme assay), Cell Mat Assay, and anti-tumor activity (in vivo anti-tumor studies) could be determined by the assay procedures described in WO 95/10516. The disclosure of WO 95/10516 is incorporated herein by reference thereto.
row,IC50 [nM],SMILES
1,10.8,"NC(=O)N1CCC(CC(=O)N2CCC(C3(O)c4ncc(Br)cc4CCc4cc(Cl)cc(Br)c43)CC2)CC1 (centres unmarked) [Example #2 Step C, 4-[2-[4-(3,10-dibromo-8-chloro-6,11-dihydro-11-hydroxy-5H-benzo[5,6]cyclohepta[1,2-b]pyridin-11-yl)-1-piperdinyl]-2-oxoethyl]-1-piperidinecarboxamide]"
2,42,"CC(C)(C)OC(=O)N1CCC(CC(=O)N2CCC(C3(O)c4ncc(Br)cc4CCc4cc(Cl)cc(Br)c43)CC2)CC1 (centres unmarked) [Example #2 Step A, 4-(3,10-dibromo-8-chloro-6,11-dihydro-11-hydroxy-5H-benzo[5,6]cyclohepta[1,2-b]pyridin-11-yl)-1-(N-BOC-4-piperdinylacetyl)piperidine]"
3,12.5,"O=C(CC1CCNCC1)N1CCC(C2(O)c3ncc(Br)cc3CCc3cc(Cl)cc(Br)c32)CC1 (centres unmarked) [Example #2 Step B, 4-[2-[4-(3,10-dibromo-8-chloro-6,11-dihydro-11-hydroxy-5H-benzo[5,6]-cyclohepta[1,2-b]pyridin-11-yl)-1-piperdinyl]-2-oxoethyl]-1-piperidine]"
4,8.7,"NC(=O)CN1CCC(CC(=O)N2CCC(C3(O)c4ncc(Br)cc4CCc4cc(Cl)cc(Br)c43)CC2)CC1 (centres unmarked) [compound 3, 4-[2-[4-(3,10-dibromo-8-chloro-6,11-dihydro-11-hydroxy-5H-benzo[5,6]cyclohepta-[1,2-B]pyridin-11-yl)-1-piperidinyl]-2-oxoethyl]-1-piperidineacetamide]"
5,< 2,"O=C(Cc1cc[n+]([O-])cc1)N1CCC(C2(O)c3ncc(Br)cc3CCc3cc(Cl)cc(Br)c32)CC1 (centres unmarked) [Example #1 Step C, 4-(3,10-dibromo-8-chloro-6,11-dihydro-11-hydroxy-5H-benzo[5,6]cyclohepta[1,2-b]pyridin-11-yl)-1-(4-pyridinylacetyl)piperidine N1-oxide]"
